From PubChem BioAssay AID1918947 (Molecular Pharmacology Branch, DTP, NCI, 2023)
Values joined by “and” are separate entries in the source; they are usually repeats but may differ in a detail not shown here. Equal values may be shown once. Blank lines part the entries; values can stand above or below the molecule they belong to.

Tested on: A498 complex spheroid viability
Test: Anticancer human tumor A498 cell line growth inhibition;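 note: spheroids exposed to agents for seven days before readout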;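 for viability, T/C: 100% = DMSO vehicle-treated spheroids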
Conditions: for viability, T/C: stronger effect = lower value
In short: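 Drug combinations with the LSD1 inhibitor iadademstat tested on tumor cells co-cultured as spheroids with endothelial cells and mesenchymal stem cells. Concentrations descended in half-log increments from clinical Cmax or 10 microM.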

[1] = curve of first compound, second compound 0.1 µM
[2] = curve of first compound, second compound 0.316 µM
[3] = curve of first compound, second compound 1 µM
[4] = curve of first compound, second compound 3.16 µM
[5] = curve of first compound, second compound 10 µM
[6] = second compound 0.1 µM, first compound 0.000949 µM
[7] = second compound 0.1 µM, first compound 0.003 µM
[8] = second compound 0.1 µM, first compound 0.00949 µM
[9] = second compound 0.1 µM, first compound 0.03 µM
[10] = second compound 0.1 µM, first compound 0.0949 µM
[11] = second compound 0.1 µM, first compound 0.3 µM
[12] = second compound 0.316 µM, first compound 0.000949 µM
[13] = second compound 0.316 µM, first compound 0.003 µM
[14] = second compound 0.316 µM, first compound 0.00949 µM
[15] = second compound 0.316 µM, first compound 0.03 µM
[16] = second compound 0.316 µM, first compound 0.0949 µM
[17] = second compound 0.316 µM, first compound 0.3 µM
[18] = second compound 1 µM, first compound 0.000949 µM
[19] = second compound 1 µM, first compound 0.003 µM
[20] = second compound 1 µM, first compound 0.00949 µM
[21] = second compound 1 µM, first compound 0.03 µM
[22] = second compound 1 µM, first compound 0.0949 µM
[23] = second compound 1 µM, first compound 0.3 µM
[24] = second compound 3.16 µM, first compound 0.000949 µM
[25] = second compound 3.16 µM, first compound 0.003 µM
[26] = second compound 3.16 µM, first compound 0.00949 µM
[27] = second compound 3.16 µM, first compound 0.03 µM
[28] = second compound 3.16 µM, first compound 0.0949 µM
[29] = second compound 3.16 µM, first compound 0.3 µM
[30] = second compound 10 µM, first compound 0.000949 µM
[31] = second compound 10 µM, first compound 0.003 µM
[32] = second compound 10 µM, first compound 0.00949 µM
[33] = second compound 10 µM, first compound 0.03 µM
[34] = second compound 10 µM, first compound 0.0949 µM
[35] = second compound 10 µM, first compound 0.3 µM
[36] = second compound 0.1 µM, first compound 0.0316 µM
[37] = second compound 0.1 µM, first compound 0.1 µM
[38] = second compound 0.1 µM, first compound 0.316 µM
[39] = second compound 0.1 µM, first compound 1 µM
[40] = second compound 0.316 µM, first compound 0.0316 µM
[41] = second compound 0.316 µM, first compound 0.1 µM
[42] = second compound 0.316 µM, first compound 0.316 µM
[43] = second compound 0.316 µM, first compound 1 µM
[44] = second compound 1 µM, first compound 0.0316 µM
[45] = second compound 1 µM, first compound 0.1 µM
[46] = second compound 1 µM, first compound 0.316 µM
[47] = second compound 1 µM, first compound 1 µM
[48] = second compound 3.16 µM, first compound 0.0316 µM
[49] = second compound 3.16 µM, first compound 0.1 µM
[50] = second compound 3.16 µM, first compound 0.316 µM
[51] = second compound 3.16 µM, first compound 1 µM
[52] = second compound 10 µM, first compound 0.0316 µM
[53] = second compound 10 µM, first compound 0.1 µM
[54] = second compound 10 µM, first compound 0.316 µM
[55] = second compound 10 µM, first compound 1 µM

SMILES: CCc1c2c(nc3ccc(O)cc13)-c1cc3c(c(=O)n1C2)COC(=O)[C@]3(O)CC + NC1CCC(NC2CC2c2ccccc2)CC1
- IC50 [1]: < 0.949 nM
- IC50 [2]: < 0.949 nM
- IC50 [3]: < 0.949 nM
- IC50 [4]: < 0.949 nM
- IC50 [5]: < 0.949 nM
- viability, T/C [6]: 44.1%
- viability, T/C [7]: 34.7%
- viability, T/C [8]: 26.7%
- viability, T/C [9]: 3.44%
- viability, T/C [10]: 0.09%
- viability, T/C [11]: 0.11%
- viability, T/C [12]: 46%
- viability, T/C [13]: 33%
- viability, T/C [14]: 26.4%
- viability, T/C [15]: 3.19%
- viability, T/C [16]: 0.19%
- viability, T/C [17]: 0.12%
- viability, T/C [18]: 47.1%
- viability, T/C [19]: 37.2%
- viability, T/C [20]: 25.6%
- viability, T/C [21]: 3.37%
- viability, T/C [22]: 0.22%
- viability, T/C [23]: 0.47%
- viability, T/C [24]: 44.5%
- viability, T/C [25]: 34.5%
- viability, T/C [26]: 27.7%
- viability, T/C [27]: 1.91%
- viability, T/C [28]: 0.05%
- viability, T/C [29]: 0.11%
- viability, T/C [30]: 42.5%
- viability, T/C [31]: 31%
- viability, T/C [32]: 26%
- viability, T/C [33]: 4.35%
- viability, T/C [34]: 0.12%
- viability, T/C [35]: 0.17%

- IC50 (curve of compound): < 0.949 nM
SMILES: Nc1ccn(C2OC(CO)C(O)C2(F)F)c(=O)n1 (stereo unspecified)
- viability, T/C (compound 0.000949 µM): 22.8% and 20%
- viability, T/C (compound 0.003 µM): 29.2% and 27.8%
- viability, T/C (compound 0.00949 µM): 43.3% and 107%
- viability, T/C (compound 0.03 µM): 36.6% and 35.1%
- viability, T/C (compound 0.0949 µM): 37% and 34%
- viability, T/C (compound 0.3 µM): 27.9% and 29.2%

SMILES: Nc1ccn(C2OC(CO)C(O)C2(F)F)c(=O)n1 (stereo unspecified) + NC1CCC(NC2CC2c2ccccc2)CC1
- IC50 [1]: < 0.949 nM
- IC50 [2]: < 0.949 nM
- IC50 [3]: < 0.949 nM
- IC50 [4]: < 0.949 nM
- IC50 [5]: < 0.949 nM
- viability, T/C [6]: 25.7%
- viability, T/C [7]: 32.9%
- viability, T/C [8]: 41.2%
- viability, T/C [9]: 38%
- viability, T/C [10]: 36.8%
- viability, T/C [11]: 29.9%
- viability, T/C [12]: 24.3%
- viability, T/C [13]: 33.9%
- viability, T/C [14]: 44.2%
- viability, T/C [15]: 43.3%
- viability, T/C [16]: 36.8%
- viability, T/C [17]: 31.1%
- viability, T/C [18]: 21.7%
- viability, T/C [19]: 32.8%
- viability, T/C [20]: 43.2%
- viability, T/C [21]: 40.8%
- viability, T/C [22]: 29.9%
- viability, T/C [23]: 29.3%
- viability, T/C [24]: 23.8%
- viability, T/C [25]: 30.5%
- viability, T/C [26]: 38.2%
- viability, T/C [27]: 38.2%
- viability, T/C [28]: 30.8%
- viability, T/C [29]: 30.3%
- viability, T/C [30]: 22.3%
- viability, T/C [31]: 26.7%
- viability, T/C [32]: 39.8%
- viability, T/C [33]: 38.5%
- viability, T/C [34]: 27.9%
- viability, T/C [35]: 25.5%

SMILES: O=C(c1cc(Cc2n[nH]c(=O)c3ccccc23)ccc1F)N1CCN(C(=O)C2CC2)CC1 + NC1CC1c1ccc(-c2cccc(O)c2)cc1
- IC50 [1]: > 10000 nM
- IC50 [2]: > 10000 nM
- IC50 [3]: > 10000 nM
- IC50 [4]: > 10000 nM
- IC50 [5]: > 10000 nM
- viability, T/C [36]: 107%
- viability, T/C [37]: 111%
- viability, T/C [38]: 105%
- viability, T/C [39]: 105%
- viability, T/C (second compound 0.1 µM, first compound 3.16 µM): 107%
- viability, T/C (second compound 0.1 µM, first compound 10 µM): 91.5%
- viability, T/C [40]: 109%
- viability, T/C [41]: 113%
- viability, T/C [42]: 111%
- viability, T/C [43]: 108%
- viability, T/C (second compound 0.316 µM, first compound 3.16 µM): 102%
- viability, T/C (second compound 0.316 µM, first compound 10 µM): 97.8%
- viability, T/C [44]: 107%
- viability, T/C [45]: 110%
- viability, T/C [46]: 105%
- viability, T/C [47]: 99.1%
- viability, T/C (second compound 1 µM, first compound 3.16 µM): 97.6%
- viability, T/C (second compound 1 µM, first compound 10 µM): 96%
- viability, T/C [48]: 101%
- viability, T/C [49]: 105%
- viability, T/C [50]: 104%
- viability, T/C [51]: 103%
- viability, T/C (second compound 3.16 µM, first compound 3.16 µM): 95.2%
- viability, T/C (second compound 3.16 µM, first compound 10 µM): 91%
- viability, T/C [52]: 102%
- viability, T/C [53]: 105%
- viability, T/C [54]: 107%
- viability, T/C [55]: 101%
- viability, T/C (second compound 10 µM, first compound 3.16 µM): 102%
- viability, T/C (second compound 10 µM, first compound 10 µM): 88.4%

SMILES: CC1COCCN1c1cc(-c2ccnn2C)c2ccnc(-c3ccn[nH]3)c2n1 (stereo unspecified) + NC1CC1c1ccc(-c2cccc(O)c2)cc1
- IC50 [1]: 30.9 nM
- IC50 [2]: 29.8 nM
- IC50 [3]: 36.8 nM
- IC50 [4]: 28.4 nM
- IC50 [5]: 31.5 nM
- viability, T/C (second compound 0.1 µM, first compound 0.00316 µM): 104%
- viability, T/C (second compound 0.1 µM, first compound 0.01 µM): 88.1%
- viability, T/C [36]: 48.2%
- viability, T/C [37]: 23.6%
- viability, T/C [38]: 16.9%
- viability, T/C [39]: 11.8%
- viability, T/C (second compound 0.316 µM, first compound 0.00316 µM): 108%
- viability, T/C (second compound 0.316 µM, first compound 0.01 µM): 94%
- viability, T/C [40]: 45.8%
- viability, T/C [41]: 25.3%
- viability, T/C [42]: 18.1%
- viability, T/C [43]: 13%
- viability, T/C (second compound 1 µM, first compound 0.00316 µM): 105%
- viability, T/C (second compound 1 µM, first compound 0.01 µM): 87%
- viability, T/C [44]: 55.5%
- viability, T/C [45]: 22.8%
- viability, T/C [46]: 17.7%
- viability, T/C [47]: 12.3%
- viability, T/C (second compound 3.16 µM, first compound 0.00316 µM): 109%
- viability, T/C (second compound 3.16 µM, first compound 0.01 µM): 85.5%
- viability, T/C [48]: 45.8%
- viability, T/C [49]: 23.3%
- viability, T/C [50]: 15.6%
- viability, T/C [51]: 12.9%
- viability, T/C (second compound 10 µM, first compound 0.00316 µM): 91.9%
- viability, T/C (second compound 10 µM, first compound 0.01 µM): 80.3%
- viability, T/C [52]: 49%
- viability, T/C [53]: 24.8%
- viability, T/C [54]: 16.3%
- viability, T/C [55]: 11.4%

- IC50 (curve of compound): > 100 nM
SMILES: Cn1ncnc1C1c2n[nH]c(=O)c3cc(F)cc(c23)NC1c1ccc(F)cc1 (stereo unspecified)
- viability, T/C (compound 0.000316 µM): 98.4% and 110%
- viability, T/C (compound 0.001 µM): 99.4% and 107%
- viability, T/C (compound 0.00316 µM): 97.5% and 102%
- viability, T/C (compound 0.01 µM): 106% and 103%
- viability, T/C (compound 0.0316 µM): 95% and 99%
- viability, T/C (compound 0.1 µM): 101% and 94.5%

- IC50 (curve of compound): 5.29 nM and 5.46 nM
SMILES: CC(C)CC(NC(=O)CNC(=O)c1cc(Cl)ccc1Cl)B1OC(=O)CC(CC(=O)O)(C(=O)O)O1 (stereo unspecified)
- viability, T/C (compound 0.000316 µM): 102% and 107%
- viability, T/C (compound 0.001 µM): 106% and 107%
- viability, T/C (compound 0.00316 µM): 69.4% and 75.4%
- viability, T/C (compound 0.01 µM): 24.7% and 21.5%
- viability, T/C (compound 0.0316 µM): 5.96% and 6.51%
- viability, T/C (compound 0.1 µM): 2.46% and 1.92%
